Assay results as given in patent US11667651B2, “Aminopyridine derivatives as phosphatidylinositol phosphate kinase inhibitors” (HiberCell, Inc., priority 2017, dated 2023).
pIC50: −log10 of the molar value.

Legend:
Format in all cases: biochemical
PIP4K2B = target: T1, PIP4K2B (Homo sapiens, UniProt P78356); assay: Trans-FI P kinase assay PIP4K2B (Table 4); settings: compounds listed under IC50 bins; read-out: Trans-FI P kinase assays: PIP4K2B IC50
T1 construct: made in house; host or cells: E. coli
T1 sequence (P78356 1-416): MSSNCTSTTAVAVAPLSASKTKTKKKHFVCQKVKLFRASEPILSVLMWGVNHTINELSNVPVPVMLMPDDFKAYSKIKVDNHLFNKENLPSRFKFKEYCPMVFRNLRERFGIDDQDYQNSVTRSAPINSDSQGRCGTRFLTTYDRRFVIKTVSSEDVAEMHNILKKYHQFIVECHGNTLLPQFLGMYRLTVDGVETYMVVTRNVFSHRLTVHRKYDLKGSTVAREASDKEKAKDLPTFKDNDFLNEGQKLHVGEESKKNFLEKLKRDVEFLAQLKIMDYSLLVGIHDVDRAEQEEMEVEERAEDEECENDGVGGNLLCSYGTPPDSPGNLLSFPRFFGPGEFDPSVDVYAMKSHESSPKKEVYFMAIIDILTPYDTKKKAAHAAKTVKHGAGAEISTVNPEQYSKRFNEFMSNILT
Procedure, shortened: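 Transcreener FI detection (Ex 584/Em 623) of GDP, converted via calibration curve, gives IC50 from residual activity versus log concentration (highest 4.8 μM). Reaction: 80 μM PI5P plus DOPE carrier, 100 μM GTP, 5 nM GST-tagged enzyme, pH 7.3 HEPES with MgCl2 and 5% DMSO, 2 h after 1 h enzyme-compound preincubation at 27° C.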

PIP4K2A [1] = target: T2, PIP4K2A (Homo sapiens, UniProt P48426); assay: Kinase Assay PIP4K2 A (Table 2); design: 4 nM PIP4K2A (full length protein, SignalChem); purchased SignalChem; settings: compounds listed under IC50 bins
T2 sequence (P48426 1-406): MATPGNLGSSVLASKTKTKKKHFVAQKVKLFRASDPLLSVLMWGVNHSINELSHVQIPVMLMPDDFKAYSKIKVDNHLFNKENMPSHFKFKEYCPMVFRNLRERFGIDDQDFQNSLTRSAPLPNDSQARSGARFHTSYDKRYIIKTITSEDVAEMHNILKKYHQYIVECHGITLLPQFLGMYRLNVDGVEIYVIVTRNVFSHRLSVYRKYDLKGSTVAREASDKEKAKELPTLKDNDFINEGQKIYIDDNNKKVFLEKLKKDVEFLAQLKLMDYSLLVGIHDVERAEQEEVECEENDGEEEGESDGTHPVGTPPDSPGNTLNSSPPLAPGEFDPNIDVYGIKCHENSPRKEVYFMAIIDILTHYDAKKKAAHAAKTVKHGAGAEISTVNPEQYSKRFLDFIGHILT
Procedure, shortened: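 ADP-Glo luminescent read-out after 1 h room-temperature kinase reaction, started with 60 μM ATP solution following 15 min compound pre-incubation. Enzyme/substrate mix: 4 nM full-length PIP4K2A plus 100 μM PI(5)P diC8; buffer MOPS pH 7.2 with 25 mM MgCl2 and Tween 20. IC50 from 10-point, 3-fold titrations normalized to DMSO.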

PIP4K2A [2] = target: T2, PIP4K2A; assay: ADP-glo kinase assay PIP4K 2A (Table 3); design: made in house; host or cells: E. coli; settings: compounds listed under IC50 bins
Procedure, shortened: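 ADP-Glo luminescence detected ADP after 1 h RT reaction started by ATP (60 μM solution) on full-length PIP4K2A (4 nM in mix) and PI(5)P diC8 (100 μM in mix), preceded by 15 min enzyme-compound preincubation in MOPS pH 7.2/25 mM MgCl2. Percent inhibition versus DMSO over 10 concentrations fitted for IC50.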

CN(C)C/C=C/C(=O)Nc1cccc(CCC(=O)Nc2cccc(CN3CCN(c4cncc(Nc5ccc(-c6ccc(C(=O)N(C)C)cc6)cn5)c4)C3=O)c2)c1 [Example 225, (E)-4-(6-((5-(3-(3-(3-(3-(4-(dimethylamino)but-2-enamido)phenyl)propanamido)benzyl)-2-oxoimidazolidin-1-yl)pyridin-3-yl)amino)pyridin-3-yl)-N,N-dimethylbenzamide]
pIC50 (PIP4K2B): 7.00 to 8.00
pIC50 (PIP4K2A [1]): 8.00 to 9.00
pIC50 (PIP4K2A [2]): 7.00 to 8.00

CN(C)C/C=C/C(=O)NCC(=O)Nc1cccc(CN2CCN(c3cncc(Nc4ccc(-c5ccc(C(=O)N(C)C)cc5)cn4)c3)C2=O)c1 [Example 227, (E)-4-(6-((5-(3-(3-(2-(4-(dimethylamino)but-2-enamido)acetamido)benzyl)-2-oxoimidazolidin-1-yl)pyridin-3-yl)amino)pyridin-3-yl)-N,N-dimethylbenzamide]
pIC50 (PIP4K2B): 7.00 to 8.00
pIC50 (PIP4K2A [1]): ≥ 9.00
pIC50 (PIP4K2A [2]): 8.00 to 9.00

CN(C)C(=O)c1ccc(-c2ccc(Nc3cncc(N4CCN(Cc5ccc(NC(=O)CN)cc5)C4=O)c3)nc2)cc1 [Example 228, 4-(6-((5-(3-(4-(2-aminoacetamido)benzyl)-2-oxoimidazolidin-1-yl)pyridin-3-yl)amino)pyridin-3-yl)-N,N-dimethylbenzamide]
pIC50 (PIP4K2B): < 6.00
pIC50 (PIP4K2A [1]): < 6.00
pIC50 (PIP4K2A [2]): < 6.00

CN(C)C/C=C/C(=O)NCC(=O)Nc1ccc(CN2CCN(c3cncc(Nc4ccc(-c5ccc(C(=O)N(C)C)cc5)cn4)c3)C2=O)cc1 [Example 229, (E)-4-(6-((5-(3-(4-(2-(4-(dimethylamino)but-2-enamido)acetamido)benzyl)-2-oxoimidazolidin-1-yl)pyridin-3-yl)amino)pyridin-3-yl)-N,N-dimethylbenzamide]
pIC50 (PIP4K2B): < 6.00
pIC50 (PIP4K2A [1]): < 6.00
pIC50 (PIP4K2A [2]): < 6.00

CN(C)C(=O)c1ccc(-c2ccc(Nc3cncc(N4CCN(Cc5ccc(NC(=O)CCc6cccc(N)c6)cc5)C4=O)c3)nc2)cc1 [Example 230, 4-(6-((5-(3-(4-(3-(3-aminophenyl)propanamido)benzyl)-2-oxoimidazolidin-1-yl)pyridin-3-yl)amino)pyridin-3-yl)-N,N-dimethylbenzamide]
pIC50 (PIP4K2B): 7.00 to 8.00
pIC50 (PIP4K2A [1]): 8.00 to 9.00
pIC50 (PIP4K2A [2]): 8.00 to 9.00

CN(C)C/C=C/C(=O)Nc1cccc(CCC(=O)Nc2ccc(CN3CCN(c4cncc(Nc5ccc(-c6ccc(C(=O)N(C)C)cc6)cn5)c4)C3=O)cc2)c1 [Example 231, (E)-4-(6-((5-(3-(4-(3-(3-(4-(dimethylamino)-but-2-enamido)phenyl)propanamido)benzyl)-2-oxoimidazolidin-1-yl)pyridin-3-yl)amino)pyridin-3-yl)-N,N-dimethylbenzamide]
pIC50 (PIP4K2B): 7.00 to 8.00
pIC50 (PIP4K2A [1]): 8.00 to 9.00
pIC50 (PIP4K2A [2]): 8.00 to 9.00

CN(C)C(=O)c1ccc(-c2ccc(Nc3cncc(NC(=O)c4cccc5[nH]cnc45)c3)nc2)cc1 [Example 232, N-(5-((5-(4-(dimethylcarbamoyl)phenyl)pyridin-2-yl)amino)pyridin-3-yl)-1H-benzo[d]imidazole-7-carboxamide]
pIC50 (PIP4K2B): 7.00 to 8.00
pIC50 (PIP4K2A [1]): 8.00 to 9.00
pIC50 (PIP4K2A [2]): 7.00 to 8.00

O=C1CCCN1c1ccc(-c2ccc(Nc3cnc4c(c3)N(C(=O)C3(O)CC3)CCO4)nc2)cc1 [Example 233, 1-(4-(6-((1-(1-hydroxycyclopropane-1-carbonyl)-2,3-dihydro-1H-pyrido[2,3-b][1,4]oxazin-7-yl)amino)pyridin-3-yl)phenyl)pyrrolidin-2-one]
pIC50 (PIP4K2B): 7.00 to 8.00
pIC50 (PIP4K2A [1]): 8.00 to 9.00
pIC50 (PIP4K2A [2]): 8.00 to 9.00

CC(O)C(=O)N1CCOc2ncc(Nc3ccc(-c4ccc(N5CCCC5=O)cc4)cn3)cc21 (stereo not drawn) [Example 234, 1-(4-(6-((1-(2-hydroxypropanoyl)-2,3-dihydro-1H-pyrido[2,3-b][1,4]oxazin-7-yl)amino)pyridin-3-yl)phenyl)pyrrolidin-2-one]
pIC50 (PIP4K2B): 7.00 to 8.00
pIC50 (PIP4K2A [1]): 8.00 to 9.00
pIC50 (PIP4K2A [2]): 8.00 to 9.00

O=C1CCCN1c1ccc(-c2ccc(Nc3cnc4c(c3)N(C(=O)CO)CCO4)nc2)cc1 [Example 235, 1-(4-(6-((1-(2-hydroxyacetyl)-2,3-dihydro-1H-pyrido[2,3-b][1,4]oxazin-7-yl)amino)pyridin-3-yl)phenyl)pyrrolidin-2-one]
pIC50 (PIP4K2B): 7.00 to 8.00
pIC50 (PIP4K2A [1]): 8.00 to 9.00
pIC50 (PIP4K2A [2]): 7.00 to 8.00

O=C1C[C@@H](O)CN1c1ccc(-c2ccc(Nc3cnc4c(c3)N3C(=O)CC[C@H]3CO4)nc2)cc1 [Example 236, (S)-2-((5-(4-((R)-4-hydroxy-2-oxopyrrolidin-1-yl)phenyl)pyridin-2-yl)amino)-6,6a,7,8-tetrahydro-9H-pyrido[2,3-b]pyrrolo[1,2-d][1,4]oxazin-9-one]
pIC50 (PIP4K2B): 7.00 to 8.00
pIC50 (PIP4K2A [1]): 6.00 to 7.00
pIC50 (PIP4K2A [2]): 6.00 to 7.00

O=C1C[C@H](O)CN1c1ccc(-c2ccc(Nc3cnc4c(c3)N3C(=O)CC[C@H]3CO4)nc2)cc1 [Example 237, (S)-2-((5-(4-((S)-4-hydroxy-2-oxopyrrolidin-1-yl)phenyl)pyridin-2-yl)amino)-6,6a,7,8-tetrahydro-9H-pyrido[2,3-b]pyrrolo[1,2-d][1,4]oxazin-9-one]
pIC50 (PIP4K2B): < 6.00
pIC50 (PIP4K2A [1]): 6.00 to 7.00
pIC50 (PIP4K2A [2]): 6.00 to 7.00

CC(C)(O)C(=O)N1CCOc2ncc(Nc3ccc(-c4ccc(N5CCCC5=O)cc4)cn3)cc21 [Example 238, 1-(4-(6-((1-(2-hydroxy-2-methylpropanoyl)-2,3-dihydro-1H-pyrido[2,3-b][1,4]oxazin-7-yl)amino)pyridin-3-yl)phenyl)pyrrolidin-2-one]
pIC50 (PIP4K2B): 7.00 to 8.00
pIC50 (PIP4K2A [1]): 8.00 to 9.00
pIC50 (PIP4K2A [2]): 8.00 to 9.00

COc1cncc(C(=O)Nc2cncc(Nc3ccc(-c4ccc(N5CCCC5=O)cc4)cn3)c2)c1 [Example 239, 5-methoxy-N-(5-((5-(4-(2-oxopyrrolidin-1-yl)phenyl)pyridin-2-yl)amino)pyridin-3-yl)nicotinamide]
pIC50 (PIP4K2B): 7.00 to 8.00
pIC50 (PIP4K2A [1]): 8.00 to 9.00
pIC50 (PIP4K2A [2]): 7.00 to 8.00

O=C(Nc1cncc(Nc2ccc(-c3ccc(N4CCCC4=O)cc3)cn2)c1)c1ccc(=O)[nH]c1 [Example 240, 6-oxo-N-(5-((5-(4-(2-oxopyrrolidin-1-yl)phenyl)pyridin-2-yl)amino)pyridin-3-yl)-1,6-dihydropyridine-3-carboxamide]
pIC50 (PIP4K2B): 7.00 to 8.00
pIC50 (PIP4K2A [1]): 7.00 to 8.00
pIC50 (PIP4K2A [2]): 6.00 to 7.00

COCCC(=O)N1CCN(c2cncc(Nc3ccc(-c4ccc(N5CCCC5=O)cc4)cn3)c2)CC1 [Example 241, 1-(4-(6-((5-(4-(3-methoxypropanoyl)piperazin-1-yl)pyridin-3-yl)amino)pyridin-3-yl)phenyl)pyrrolidin-2-one]
pIC50 (PIP4K2B): 7.00 to 8.00
pIC50 (PIP4K2A [1]): 7.00 to 8.00
pIC50 (PIP4K2A [2]): 6.00 to 7.00

CN(C)C(=O)c1ccc(-c2ccc(Nc3cnc4c(c3)N3C(=O)CC[C@H]3CO4)nc2)cc1 [Example 242, (S)-N,N-dimethyl-4-(6-((9-oxo-6a,7,8,9-tetrahydro-6H-pyrido[2,3-b]pyrrolo[1,2-d][1,4]oxazin-2-yl)amino)pyridin-3-yl)benzamide]
pIC50 (PIP4K2B): 7.00 to 8.00
pIC50 (PIP4K2A [1]): 8.00 to 9.00
pIC50 (PIP4K2A [2]): 8.00 to 9.00

O=C1CCCN1c1ccc(-c2ccc(Nc3cnc4c(c3)N3C(=O)CC[C@H]3CO4)nc2)cc1F [Example 246, (S)-2-((5-(3-fluoro-4-(2-oxopyrrolidin-1-yl)phenyl)pyridin-2-yl)amino)-6,6a,7,8-tetrahydro-9H-pyrido[2,3-b]pyrrolo[1,2-d][1,4]oxazin-9-one]
pIC50 (PIP4K2B): 7.00 to 8.00
pIC50 (PIP4K2A [1]): 8.00 to 9.00
pIC50 (PIP4K2A [2]): 8.00 to 9.00

CCO[C@H]1C[C@@H]1C(=O)Nc1cncc(Nc2ccc(-c3ccc(N4CCCC4=O)cc3)cn2)c1 [Example 252, (1S,2S)-2-ethoxy-N-(5-((5-(4-(2-oxopyrrolidin-1-yl)phenyl)pyridin-2-yl)amino)pyridin-3-yl)cyclopropane-1-carboxamide]
pIC50 (PIP4K2B): 7.00 to 8.00
pIC50 (PIP4K2A [1]): 8.00 to 9.00
pIC50 (PIP4K2A [2]): 7.00 to 8.00
